Assay [1] in a line: Activation of autophagy in human SH-SY5Y cells expressing GFP-LC3-RFP assessed as green-to-red signal ratio at 250 mkM relative to control. Format: functional. The following applies: at 250 µM.
Assay [2] can be described thus: Activation of autophagy in human SH-SY5Y cells expressing GFP-LC3-RFP assessed as green-to-red signal ratio at 25 mkM relative to control. The following applies: at 25 µM. The assay is classed as functional.
Assay [3] can be described thus: Activation of autophagy in human SH-SY5Y cells expressing GFP-LC3-RFP assessed as green-to-red signal ratio at 2.5 mkM relative to control. The assay is classed as functional. The following applies: at 2.5 µM.
In assay [4] the test system is SH-SY5Y. Briefly: Activation of autophagy in human SH-SY5Y cells expressing GFP-LC3-RFP assessed as increase in LC3-II level at 250 mkM by Western blot analysis. Format: functional, cell-based.
Assay [5] deals with SH-SY5Y. Briefly: Activation of autophagy in human SH-SY5Y cells expressing GFP-LC3-RFP assessed as increase in LC3-II level at 25 to 250 mkM by Western blot analysis. Format: functional, cell-based. The following applies: dose 25-250 mkM.
For assay [6], the system named is SH-SY5Y. Briefly: Activation of mitophagy in human SH-SY5Y cells expressing GFP-LC3-RFP assessed as increase in phospho-ubiquitin level at 25 to 250 mkM by Western blot analysis. The following applies: dose 25-250 mkM. The assay is classed as functional, cell-based.
Assay [7] relates to SH-SY5Y. Briefly: Effect on AKT phosphorylation at T308 in human SH-SY5Y cells expressing GFP-LC3-RFP at 25 to 250 mkM by Western blot analysis. Format: functional, cell-based. The following applies: dose 25-250 mkM.
The subject of assay [8] is SH-SY5Y. Briefly: Effect on TSC2 phosphorylation in human SH-SY5Y cells expressing GFP-LC3-RFP at 25 to 250 mkM by Western blot analysis. Format: functional, cell-based. As to conditions: dose 25-250 mkM.
Assay [9] concerns SH-SY5Y. Briefly: Activation of autophagy in human SH-SY5Y cells expressing GFP-LC3-RFP assessed as increase in AMPK phosphorylation by Western blot analysis. The following applies: dose 25-250 mkM. Format: functional, cell-based.
Assay [10] has as its system SH-SY5Y. Briefly: Activation of autophagy in human SH-SY5Y cells expressing GFP-LC3-RFP assessed as increase in ULK1 phosphorylation at S555 at 25 to 250 mkM by Western blot analysis. The assay is classed as functional, cell-based. The following applies: dose 25-250 mkM.
For assay [11], the system named is SH-SY5Y. Briefly: Activation of autophagy in human SH-SY5Y cells expressing GFP-LC3-RFP assessed as increase in Beclin-1 level at 25 to 250 mkM by Western blot analysis. The following applies: dose 25-250 mkM. The assay is classed as functional, cell-based.
For assay [12], the system named is SH-SY5Y. Briefly: Activation of autophagy in human SH-SY5Y cells expressing SIRT1-/-/GFP-LC3-RFP assessed as increase in green-to-red signal ratio at 25 to 250 mkM. The assay is classed as functional, cell-based. The following applies: dose 25-250 mkM.
Assay [13] deals with SH-SY5Y. Briefly: Activation of autophagy in human SH-SY5Y cells expressing AMPK-/-/GFP-LC3-RFP assessed as increase in green-to-red signal ratio at 25 to 250 mkM. Format: functional, cell-based. The following applies: dose 25-250 mkM.
The test system of assay [14] is SH-SY5Y. Briefly: Activation of autophagy in human SH-SY5Y cells expressing GFP-LC3-RFP assessed as increase in AMPK phosphorylation at 25 to 250 mkM by Western blot analysis. The assay is classed as functional, cell-based. As to conditions: dose 25-250 mkM.
In assay [15] the test system is SH-SY5Y. Briefly: Downregulation of ULK phosphorylation at S757 in human SH-SY5Y cells expressing GFP-LC3-RFP at 25 to 250 mkM by Western blot analysis. The assay is classed as functional, cell-based. The following applies: dose 25-250 mkM.
The test system of assay [16] is SH-SY5Y. Briefly: Downregulation of 4E-BP1 phosphorylation in human SH-SY5Y cells expressing GFP-LC3-RFP at 25 to 250 mkM by Western blot analysis. The assay is classed as functional, cell-based. The following applies: dose 25-250 mkM.

The source made the active and inactive calls. The rule behind the calls is not given here.

Take `Nc1ncnc2c1nc(Br)n2COCCO`: the Ratio in assay [1] is on record as -0.4%; in assay [2], 1.28%; in assay [3], 1.31%.

`O=c1[nH]c2c(ncn3ccnc23)n1[C@@H]1O[C@H](CO)[C@@H](O)[C@H]1O`: the Ratio in [1] is on record as -0.79%; in assay [2], -1.76%; in assay [3] it was -1.32%.

`CNc1ncnc2c1ncn2[C@@H]1O[C@H](CO)[C@@H](O)[C@H]1O`: the Ratio in [1] is listed as 3.36%; in assay [2], -1.43%; in assay [3], -1.2%. The outcome with SH-SY5Y [4] was Active. In the assay with SH-SY5Y [5], the Activity entry is “Not active; Exhibited Weakest Activity Among Tested Compounds”.

As to `Nc1ncnc2c1nc(Br)n2[C@H]1C[C@H](O)[C@@H](CO)O1`, the Ratio in assay [1] was found to be 0.2%; in assay [2], 3.16%; in assay [3], 1.78%.

For the molecule `Nc1ncnc2c1[nH]c(=O)n2[C@@H]1O[C@H](CO)[C@@H](O)[C@H]1O`, the Ratio in [1] was found to be 5.71%; in [2], 3.62%; in assay [3] it was 1.31%. Besides, the Activity entry in the assay with SH-SY5Y [5] was “Active; Exhibited Moderate Activity”; in the assay with SH-SY5Y [9] it was “Dose-dependent-effect”. Besides, the outcome in the assay with SH-SY5Y [6] and in the assay on SH-SY5Y [8] was inactive. Moreover, the result in the assay on SH-SY5Y [7], in the assay on SH-SY5Y [10], in the assay with SH-SY5Y [11], in the assay with SH-SY5Y [12] and in the assay on SH-SY5Y [13] was Active.

On to `Nc1ncnc2c1[nH]c(=O)n2COCCO`, for which the Ratio in assay [1] is recorded as 2.59%; in assay [2] it was -2.79%; in assay [3], -0.47%. Also, in the assay with SH-SY5Y [4], the result was Active. In addition, the Activity result in the assay on SH-SY5Y [5] is “Not active; Exhibited Weakest Activity Among Tested Compounds”.

As to `Nc1ncnc2c1[nH]c(=O)n2[C@H]1C[C@H](O)[C@@H](CO)O1`, the Ratio in assay [1] is 5.41%; in assay [2], 1.85%; in [3], 1.85%. Besides, the Activity result was “Active; Exhibited Moderate Activity” with SH-SY5Y [5] and “Dose-dependent-effect” in the assay on SH-SY5Y [9]. Further, the outcome in the assay on SH-SY5Y [6] and with SH-SY5Y [8] was inactive. The result with SH-SY5Y [7], in the assay with SH-SY5Y [10], with SH-SY5Y [11], in the assay on SH-SY5Y [12] and in the assay with SH-SY5Y [13] was Active.

In the case of `CCC(CC)COC(=O)[C@@H](C)N[P@](=O)(OC[C@H]1O[C@@H](n2cnc3c(NC)ncnc32)[C@H](O)[C@@H]1O)Oc1ccccc1`, the Ratio in assay [1] is 7.26%; in assay [2], 0.44%; in assay [3], -3.79%. The Activity result with SH-SY5Y [5] is recorded as “Active; Exhibited Higher Activity Compared To Parent Compound”; in the assay on SH-SY5Y [15] it was “Active; Result Provides Indirect Evidence Of Mtor Inhibition”; with SH-SY5Y [16] it was “Active; Result Provides Indirect Evidence Of Mtor Inhibition”. Further, the result in the assay with SH-SY5Y [6] and in the assay on SH-SY5Y [7] was inactive. Further, the outcome with SH-SY5Y [14], with SH-SY5Y [10], with SH-SY5Y [12] and in the assay with SH-SY5Y [13] was Active.

Turning to `Nc1nc2c([nH]c(=O)n2[C@H]2C[C@H](O)[C@@H](CO)O2)c(=O)[nH]1`, the Ratio in assay [1] is recorded as 1.94%; in assay [2], 1.51%; in assay [3], -0.68%.

The record behind these values is ChEMBL document CHEMBL6083233, “Modified (2'-deoxy)adenosines activate autophagy primarily through AMPK/ULK1-dependent pathway” (2024).
